# Results published in PMC3428523, “Phase I study of the Aurora B kinase inhibitor barasertib (AZD1152) to assess the pharmacokinetics, metabolism and excretion in patients with acute myeloid leukemia” (Cancer Chemotherapy and Pharmacology, 2012).
# Like-named read-outs stand apart in the source and are kept apart here. Marks after values point to notes of the source that are not given here.
# Legend:
# [1] = Urine pharmacokinetics of barasertib and barasertib-hQPA (LC-MS/MS) in patients with AML; format: in vivo, human
# Experimental: (§1) This was an open-label, single-arm, single-center, Phase I study. Patients received barasertib 1,200 mg as a 7-day continuous intravenous infusion every 28 days. On Day 2 of Cycle 1 only, patients also received [^14C]-barasertib (250 μCi), administered as a 2-hour infusion. Based on preclinical studies in rat and dog, it was expected that an adequate recovery of total radioactivity, and thus comprehensive metabolite profiling, would be achieved following the administration of the specified [^14C]-barasertib regimen (data on file). On the completion of the [^14C]-barasertib infusion, administration of non-radiolabeled barasertib resumed for the remainder of the 7-day infusion period. Following Cycle 1, each patient could receive subsequent treatment cycles until disease progression or any other discontinuation criteria were met. For Cycle 1, patients remained as in-patients for up to 9 days following the start of the 7-day barasertib infusion (7 days of dosing plus 2 additional days for observation). For all subsequent cycles, patients were hospitalized for the infusion period only.
# (§2) Samples of blood, urine and feces were collected prior to study treatment and at various time points during Cycle 1. Blood samples were collected approximately 30 min prior to start of infusion (SOI) on Day 1 (barasertib) and Day 2 ([^14C]-barasertib), and then every 24 h until Day 10 (216 h) and on Days 14 and 18 (312 and 408 h, respectively). In addition, samples were collected on Day 2: 1 h following the start of the [^14C]-barasertib infusion ([^14C]-SOI), 5 min prior to the end of [^14C]-barasertib infusion ([^14C]-EOI), and at 15 min, 1, 2, 4 and 8 h following [^14C]-EOI; and on Day 8: 5 min prior to the end of the barasertib infusion (EOI), and at 15 min, 1, 2, 4, 6 and 10 h following EOI. A urine sample was collected within the 24-hour period prior to barasertib-SOI; feces samples within this 24-hour period were also collected. A urine sample was collected within the 24-hour period following barasertib-SOI. Further, urine and feces samples were collected within 24-hour periods following [^14C]-SOI: 0–24, 24–48, 48–72, 72–96, 96–120, 120–144, 144–168 and 168–192 h.
# Barasertib and barasertib-hQPA concentrations in plasma and urine were measured using liquid chromatography tandem mass spectrometry following solid-phase extraction (plasma) or dilution (urine). Plasma measurements were determined by an independent bioanalytical facility (PRA International—Early Development Services, Assen, The Netherlands). The lower limit of quantification (LLOQ) was 0.25 ng/mL for plasma samples and 1.00 μg/mL for urine samples. Radioactivity in weighed aliquots of plasma, urine, feces, whole blood and dose material was determined by liquid scintillation counting (LSC). Radioactivity concentrations in plasma and whole blood, and percentage dose excreted in urine and feces samples were calculated using LabLogic Debra 5TM (version 5.4.10.51). For metabolite profiling, plasma samples that were collected 5 min prior to [^14C]-EOI for each patient were prepared using 5 % formic acid in acetonitrile; extraction efficiencies were all >91 %. Extracts were concentrated to dryness and reconstituted in water/acetonitrile (95:5 v/v). […] Metabolite profiling was determined using high-performance liquid chromatography–radiometric (HPLC-RAD) methodology, with metabolites identified by HPLC coupled with mass spectrometry (HPLC-MSn).
# [2] = Metabolite profiling of plasma, urine and feces by HPLC-RAD / HPLC-MSn; format: in vivo, human
# Experimental: Samples of blood, urine and feces were collected prior to study treatment and at various time points during Cycle 1. […] A urine sample was collected within the 24-hour period prior to barasertib-SOI; feces samples within this 24-hour period were also collected. A urine sample was collected within the 24-hour period following barasertib-SOI.
# Barasertib and barasertib-hQPA concentrations in plasma and urine were measured using liquid chromatography tandem mass spectrometry following solid-phase extraction (plasma) or dilution (urine). Plasma measurements were determined by an independent bioanalytical facility (PRA International—Early Development Services, Assen, The Netherlands). […] Radioactivity in weighed aliquots of plasma, urine, feces, whole blood and dose material was determined by liquid scintillation counting (LSC). Radioactivity concentrations in plasma and whole blood, and percentage dose excreted in urine and feces samples were calculated using LabLogic Debra 5TM (version 5.4.10.51). […] Extracts were concentrated to dryness and reconstituted in water/acetonitrile (95:5 v/v). […] The two extracts were combined, concentrated to dryness and reconstituted in water/acetonitrile (95:5 v/v). […] The first two 5 % formic acid/acetonitrile extracts were combined, concentrated to a small volume and reconstituted in water/acetonitrile (95:5 v/v). Metabolite profiling was determined using high-performance liquid chromatography–radiometric (HPLC-RAD) methodology, with metabolites identified by HPLC coupled with mass spectrometry (HPLC-MSn).
# [3] = Plasma pharmacokinetics of barasertib and barasertib-hQPA (LC-MS/MS), 7-day continuous infusion in patients with AML; format: in vivo, human; details: for Time by which maximal plasma concentration was achieved: from start of infusion, first scheduled sample
# Experimental: as §1, §2
# Barasertib and barasertib-hQPA concentrations in plasma and urine were measured using liquid chromatography tandem mass spectrometry following solid-phase extraction (plasma) or dilution (urine). Plasma measurements were determined by an independent bioanalytical facility (PRA International—Early Development Services, Assen, The Netherlands). The lower limit of quantification (LLOQ) was 0.25 ng/mL for plasma samples and 1.00 μg/mL for urine samples. Radioactivity in weighed aliquots of plasma, urine, feces, whole blood and dose material was determined by liquid scintillation counting (LSC). Radioactivity concentrations in plasma and whole blood, and percentage dose excreted in urine and feces samples were calculated using LabLogic Debra 5TM (version 5.4.10.51). For metabolite profiling, plasma samples that were collected 5 min prior to [^14C]-EOI for each patient were prepared using 5 % formic acid in acetonitrile; extraction efficiencies were all >91 %. Extracts were concentrated to dryness and reconstituted in water/acetonitrile (95:5 v/v). Pooled urine samples were freeze-dried and then reconstituted in methanol (duplicate extracts); extraction efficiencies were all >94 %. The two extracts were combined, concentrated to dryness and reconstituted in water/acetonitrile (95:5 v/v). Pooled feces samples were extracted with hexane followed by 3 × 5 % formic acid in acetonitrile; extraction efficiencies ranged from 86 to 98 %. The first two 5 % formic acid/acetonitrile extracts were combined, concentrated to a small volume and reconstituted in water/acetonitrile (95:5 v/v). Metabolite profiling was determined using high-performance liquid chromatography–radiometric (HPLC-RAD) methodology, with metabolites identified by HPLC coupled with mass spectrometry (HPLC-MSn).
# patients with AML [4] = tested on: patients with AML; parameters: method as in PMID 21976672, PMID 21565405; details: Phase I studies, Japanese and Western patients with AML; cited from earlier work
# patients with AML [5] = experiment: Safety: adverse events graded by CTCAE version 3.0; format: in vivo, human
# Experimental: (§3) Efficacy was assessed according to the International Working Group for AML trials criteria. Adverse events (AEs) were graded according to the National Cancer Institute Common Terminology Criteria for Adverse Events (CTCAE), version 3.0 [19].
# patients with AML [6] = experiment: Efficacy: response by International Working Group AML criteria; format: in vivo, human
# Experimental: The primary objective was to assess the PK, metabolism and excretion profiles of barasertib and barasertib-hQPA following a single 7-day intravenous infusion, including a short infusion of [^14C]-barasertib, to patients with AML. Secondary objectives were to assess the safety and tolerability of barasertib and to evaluate preliminary efficacy by measurement of individual patient response (based on the International Working Group AML clinical response criteria).
# as §3
# AML patients = details: Phase I/II dose-escalation study; cited from earlier work
# [7] = urine, n=5, arithmetic mean (standard deviation)
# [8] = excreta (urine and feces), % of administered dose
# [9] = plasma collected 5 min prior to [14C]-EOI, % of chromatogram radioactivity
# [10] = human, plasma, iv, 1200 mg, plasma, n=4, barasertib 1,200 mg 7-day continuous i.v. infusion, geometric mean (coefficient of variation), read-out: AUC(0–t)
# [11] = plasma, n=4, barasertib 1,200 mg 7-day continuous i.v. infusion, geometric mean (coefficient of variation)
# [12] = Grade 3, barasertib 1,200 mg, n = 5
# [13] = all grades, any cause, barasertib 1,200 mg, n = 5
# [14] = all grades, barasertib 1,200 mg, n = 5
molecule,measurement,setting,value
"CCN(CCO)CCCOc1ccc2c(Nc3cc(CC(=O)Nc4cccc(F)c4)[nH]n3)ncnc2c1 [Barasertib-hQPA, barasertib-hydroxyquinazoline-pyrazol-aniline]",Geometric mean urine concentration,[1]; during the infusion period,4 to 5 µg/mL
same,CL renal,"[1]; human, urine and plasma, intravenous, 1200 mg, urine, n=5, arithmetic mean (standard deviation), read-out: CLR, renal clearance of drug from plasma (converted)",47.5 mL/min
same,"Ae, cumulative amount of unchanged drug excreted",[1]; [7],96.9 (47.2) mg
same,"fe, fraction of drug excreted into urine",[1]; [7],8.1 (3.9) %
same,"Retrieved radioactivity (%), range",[2]; [8],13.15–33.70%
same,"Retrieved radioactivity (%), range","[2]; excreta (urine and feces), % of administered dose, listed as barasertib-hQPA",13.2–33.7%
same,"Retrieved radioactivity (%), range",[2]; [9],48.27–56.61%
same,Geometric mean plasma concentration of barasertib-hQPA relative to barasertib,[3]; during the infusion period,approximately threefold
same,Time by which maximal plasma concentration was achieved,[3],≤ 24 h
same,Difference between volumes of distribution (apparent) at steady state versus terminal phase,"[3]; human, in vivo",fourfold
same,clearance,"[3]; human, intravenous, 1200 mg, plasma, n=4, arithmetic mean (standard deviation), read-out: CL, total clearance (converted)",523 mL/min
same,half-life,"[3]; human, intravenous, 1200 mg, plasma, n=4, arithmetic mean (standard deviation), read-out: t½, terminal half-life (converted)",66.3 h
same,k el,"[3]; human, intravenous, 1200 mg, plasma, n=4, arithmetic mean (standard deviation), read-out: λZ, slowest disposition rate constant (converted)",5.56e-06 s⁻¹
same,AUC,"[3]; human, iv, 1200 mg, plasma, n=4, barasertib 1,200 mg 7-day continuous i.v. infusion, geometric mean (coefficient of variation)",40400 ng·h/mL
same,Vd,"[3]; human, plasma, intravenous, 1200 mg, plasma, n=4, arithmetic mean (standard deviation), read-out: VSS, volume of distribution (apparent) at steady state",669 L
same,Vd,"[3]; human, plasma, intravenous, 1200 mg, plasma, n=4, arithmetic mean (standard deviation), read-out: VZ, volume of distribution (apparent) during terminal (λZ) phase",2800 L
same,concentration at 408 h,"[3]; human, plasma, intravenous, 1200 mg, 408 h (Day 18), read-out: Plasma concentration at final sampling point",~4 ng/mL
same,AUC(0-t),"[3]; human, plasma, iv, 1200 mg, plasma, n=4, barasertib 1,200 mg 7-day continuous i.v. infusion, geometric mean (coefficient of variation), read-out: AUC(0–192 h)",38200 ng·h/mL
same,AUC(0-t),[3]; [10],40100 ng·h/mL
same,"CSS, steady-state drug concentration",[3]; [11],226.8 (0.4) ng/mL
same,Plasma concentration as fraction of the plasma steady-state concentration,"[3]; within 2 h post-EOI, rapid initial phase",one-third
Barasertib-hQPA N-oxide,"Retrieved radioactivity (%), range",[2]; [8],0.21–2.96%
CCN(CCO)CCCOc1ccc2c(Nc3cc(CC(=O)O)[nH]n3)ncnc2c1 [Barasertib-hQPA desfluoroaniline],"Retrieved radioactivity (%), range",[2]; [8],1.60–5.48%
same,"Retrieved radioactivity (%), range",[2]; [9],2.05^e %
CCN(CCCOc1ccc2c(Nc3cc(CC(=O)Nc4cccc(F)c4)n[nH]3)ncnc2c1)CCOP(=O)(O)O [Barasertib],Urine concentration,"[1]; all time points, LLOQ 1.00 μg/mL urine",below LLOQ
same,Response rates,patients with AML [4],19–25%
same,"Febrile neutropenia, number of patients",patients with AML [5]; [12],2
same,"Hypocalcemia, number of patients",patients with AML [5]; [12],1
same,"Hypomagnesemia, number of patients",patients with AML [5]; [12],1
same,"Stomatitis, number of patients",patients with AML [5]; [12],2
same,"Febrile neutropenia, number of patients","patients with AML [5]; Grade 4, barasertib 1,200 mg, n = 5",1
same,"Nausea, number of patients",patients with AML [5]; [13],4
same,"Stomatitis, number of patients",patients with AML [5]; [13],4
same,"Alopecia, number of patients",patients with AML [5]; [14],3
same,"Constipation, number of patients",patients with AML [5]; [14],2
same,"Decreased appetite, number of patients",patients with AML [5]; [14],2
same,"Diarrhea, number of patients",patients with AML [5]; [14],2
same,"Fatigue, number of patients",patients with AML [5]; [14],2
same,"Febrile neutropenia, number of patients",patients with AML [5]; [14],3
same,"Headache, number of patients",patients with AML [5]; [14],2
same,"Hypocalcemia, number of patients",patients with AML [5]; [14],3
same,"Hypomagnesemia, number of patients",patients with AML [5]; [14],2
same,"Oral candidiasis, number of patients",patients with AML [5]; [14],2
same,"Peripheral edema, number of patients",patients with AML [5]; [14],2
same,"Vomiting, number of patients",patients with AML [5]; [14],3
same,Patients who had died due to an AE,"patients with AML [5]; at data cutoff, grade 5 multi-organ failure, considered unrelated to study treatment",one
same,Changes in vital signs or ECG measurements,"patients with AML [5]; barasertib 1,200 mg, n = 5",no clinically relevant changes
same,Patients who experienced grade ≥3 AEs,"patients with AML [5]; barasertib 1,200 mg, n = 5",three
same,Patients with no response,patients with AML [6]; four patients evaluable for response,three
same,Patients achieving complete response / complete remission,"patients with AML [6]; four patients evaluable for response, barasertib 1,200 mg 7-day infusion every 28 days",One
same,Duration of complete response,patients with AML [6]; one patient,~ 6 months
same,Maximum tolerated dose (MTD),AML patients,"1,200 mg"
same,"Retrieved radioactivity (%), range",[2]; [9],17.26–26.53%
same,Time after end of infusion at which plasma concentration reached the LLOQ,[3]; LLOQ 0.25 ng/mL plasma,≤ 6 h
same,Time by which maximal plasma concentration was achieved,[3],≤ 24 h
same,AUC(0-t),[3]; [10],13800 ng·h/mL
same,"CSS, steady-state drug concentration",[3]; [11],85.6 (0.5) ng/mL
